In ChEMBL document CHEMBL5729193, “Aromatic vinyl or aromatic ethyl derivative, preparation method therefor, intermediate, pharmaceutical composition, and application” (2022):

Target: Programmed cell death protein 1/Programmed cell death 1 ligand 1 (Homo sapiens, UniProt Q15116+Q9NZQ7)
Experiment: Homogenouse Time-Resolved Fluorescence (HTRF) Binding Assay: Experimental Procedure1. The compound was formulated to 10 concentrations with a three-fold concentration gradient with 100% DMSO.2. The solution of the compound in DMSO was added to Dilute Buffer, and mixed evenly and then transferred to a 96-well plate.3. PD-L1 was diluted with Dilute Buffer and added to the 96-well plate above.4. PD-1 was diluted with Dilute Buffer, then added to the 96-well plate above and incubated at room temperature for 30 minutes.5. One portion of anti-tag1-Eu and one portion of anti-tag2-XL665 were added to Detection Buffer, mixed evenly and transferred to the 96-well plate above.6. The mixed solution in the 96-well plate were incubated at room temperature for 1 to 24 hours.7. HTRF values were read by Envision.
Format: protein-complex assay

Sequence of Programmed cell death protein 1/Programmed cell death 1 ligand 1 (Q15116 whole entry): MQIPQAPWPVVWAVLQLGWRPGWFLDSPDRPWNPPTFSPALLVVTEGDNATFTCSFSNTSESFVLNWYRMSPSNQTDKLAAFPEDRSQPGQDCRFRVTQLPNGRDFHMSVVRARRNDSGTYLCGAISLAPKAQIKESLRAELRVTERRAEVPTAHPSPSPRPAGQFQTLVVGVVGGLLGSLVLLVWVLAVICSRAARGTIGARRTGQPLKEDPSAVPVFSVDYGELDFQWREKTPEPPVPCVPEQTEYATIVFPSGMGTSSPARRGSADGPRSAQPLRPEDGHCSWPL
Sequence of Programmed cell death protein 1/Programmed cell death 1 ligand 1 (Q9NZQ7 whole entry): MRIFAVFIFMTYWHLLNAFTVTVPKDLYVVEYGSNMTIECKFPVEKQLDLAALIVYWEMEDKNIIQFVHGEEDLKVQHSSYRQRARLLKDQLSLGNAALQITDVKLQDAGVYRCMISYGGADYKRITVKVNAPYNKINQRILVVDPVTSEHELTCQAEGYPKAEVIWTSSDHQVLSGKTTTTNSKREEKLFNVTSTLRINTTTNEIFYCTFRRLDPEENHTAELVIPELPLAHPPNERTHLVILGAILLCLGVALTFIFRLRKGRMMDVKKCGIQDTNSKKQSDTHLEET

Structure (SMILES) | IC50 [nM]
Cc1c(/C=C/c2cc(CNC(C)(CO)C(=O)O)ccc2C(F)(F)F)cccc1-c1ccc(F)cc1 (configuration not stated) | 320
Cc1c(/C=C/c2cc(CN[C@@](C)(CO)C(=O)O)ccc2C(F)(F)F)cccc1-c1ccccn1 | 2200
Cc1c(CCc2cc(CNC(C)(CO)C(=O)O)ccc2C(F)(F)F)cccc1-c1ccccc1 (configuration not stated) | 85
Cc1c(/C=C/c2cc(C(C)NCC(=O)O)ccc2C(F)(F)F)cccc1-c1ccccc1 (configuration not stated) | 24
Cc1c(CCc2cc(CNC(CO)C(=O)O)ccc2C(F)(F)F)cccc1-c1ccccc1 (configuration not stated) | 46
Cc1c(/C=C/c2cc(CN[C@@](C)(CO)C(=O)O)ccc2C(F)(F)F)cccc1-c1cccnc1 | 580
Cc1c(CCc2cc(CNC(C)C(=O)O)ccc2C(F)(F)F)cccc1-c1ccccc1 (configuration not stated) | 44
Cc1c(/C=C/c2cc(CN[C@@](C)(CO)C(=O)O)ccc2C(F)(F)F)cccc1-c1cnccn1 | 540
Cc1c(/C=C/c2cc(CNC(CO)C(=O)O)ccc2C(F)(F)F)cccc1-c1ccccc1F (configuration not stated) | 13
Cc1c(/C=C/c2cc(CN[C@@](C)(CO)C(=O)O)ccc2C(F)(F)F)cccc1-c1ccc2cn(C)nc2c1 | 880
Cc1c(/C=C/c2cc(CNC(C)(CO)C(=O)O)ccc2C(F)(F)F)cccc1-c1ccccc1F (configuration not stated) | 20
Cc1ccc(CNC(C)(CO)C(=O)O)cc1/C=C/c1cccc(-c2cccc(F)c2)c1C (configuration not stated) | 57
COc1ccc(-c2cccc(/C=C/c3cc(CNC(C)(CO)C(=O)O)ccc3C)c2C)cc1 (configuration not stated) | 3100
Cc1c(/C=C/c2cc(CN[C@@](C)(CO)C(=O)O)ccc2C(F)(F)F)cccc1-c1ccc2ncoc2c1 | 1100
Cc1ccc(CNC(C)(CO)C(=O)O)cc1/C=C/c1cccc(-c2ccc(F)cc2)c1C (configuration not stated) | 1400
Cc1c(/C=C/c2cc(CNC(CO)C(=O)O)ccc2C(F)(F)F)cccc1-c1ccc2c(c1)OCCO2 (configuration not stated) | 14
Cc1c(/C=C/c2cc(CNC(C)(CO)C(=O)O)ccc2C(F)(F)F)cccc1-c1cccc(F)c1 (configuration not stated) | 46
